Reference: the OPERA property sets (Mansouri et al. 2018)

Conditions: not given

Structure (SMILES) | melting point [°C] | boiling point [°C] | ready biodegradability | log10 vapour pressure (mmHg) | log10 Koc (L/kg) | log10 Henry constant (atm·m³/mol) | log10 biodegradation half-life (days)
O=C(O)CCCCCCCCCCCCCCCO | 98 | – | – | – | – | – | –
OC(c1ccc(Cl)cc1)c1cc2ccccc2o1 (configuration not stated) | 48.5 | – | – | – | – | – | –
CC(O)COCC(C)O (configuration not stated) | – | 233 | not readily biodegradable | – | – | – | –
CC(C)(C)c1cc(C(C)(C)c2ccc(O)c(C(C)(C)C)c2)ccc1O | 114 | – | – | – | – | – | –
CCOc1ccc(NC(=O)OC(C)C)cc1OCC | 100 | – | – | -4.2 | – | – | –
C[C@]12CC[C@@H]3c4ccc(OC(=O)c5ccccc5)cc4CC[C@H]3[C@@H]1CC[C@@H]2O | 196 | – | – | – | – | – | –
NNc1c(Cl)cc(Cl)cc1Cl | – | – | not readily biodegradable | – | – | – | –
CCCCCCCCCCCBr | -9 | – | – | -1.92 | – | – | –
Cc1cccc2cccnc12 | -80 | 248 | – | -1.6 | – | – | –
c1ccc2nc(-c3ccc4ccccc4n3)ccc2c1 | 194 | – | – | – | 4.02 | – | –
O=[N+]([O-])c1cc([N+](=O)[O-])c2ccccc2c1O | 131 | – | – | – | – | – | –
CCOP(=O)(OCC)SCc1ccccc1 | – | – | – | – | 2.4 | – | –
Cc1cccc(C(C)(C)C)c1O | 31 | 230 | not readily biodegradable | – | – | – | –
NC(=O)c1cccs1 | 182 | – | – | – | – | – | –
CC(O)C(C)O (racemic) | 16.3 | 182 | – | -0.677 | – | – | –
CC(=O)C1CCCCC1 | – | 180 | – | – | – | -4.47 | –
Oc1ccc2cc(O)ccc2c1 | 220 | – | – | – | – | – | –
COCCOC(=O)c1ccccc1C(=O)OCCOC | -45 | 340 | – | – | – | – | –
NC12CC3CC(CC(C3)C1)C2 | 180 | – | – | – | – | – | –
FC(F)(F)c1ccc(Cl)nc1 | 33 | 153 | – | – | – | – | –
CC(C)CCC[C@@H](C)[C@H]1CC[C@H]2C3=CC=C4C[C@@H](O)CC[C@]4(C)[C@H]3CC[C@]12C | 150 | – | – | – | – | – | –
CC(C)OP(=O)(OC(C)C)SCc1ccccc1 | – | – | – | -4.39 | 2.26 | – | –
Oc1c(Cl)cccc1-c1ccccc1 | 6 | – | – | – | – | – | –
Oc1c(F)c(F)c(F)c(F)c1F | 32.8 | 146 | – | 0.464 | – | – | –

Structure (SMILES) | melting point [°C] | boiling point [°C] | ready biodegradability | log10 vapour pressure (mmHg) | log10 Koc (L/kg) | log10 Henry constant (atm·m³/mol) | log10 biodegradation half-life (days)
CCCCc1ccc2ccccc2c1 | -5 | 292 | – | – | – | – | –
S=C([S-])[S-] | -30 | – | – | – | – | – | –
CCc1cc2c(cc1C(C)=O)C(C)(C)CCC2(C)C | 46.5 | – | – | – | – | – | –
CCOc1cc(NC(C)=O)ccc1C(=O)OC | 148 | – | – | – | – | – | –
CCOc1ccccc1Cl | – | 210 | – | – | – | – | –
Clc1cc(Cl)nc(-c2ccccc2)n1 | 96.9 | – | – | -4.05 | – | – | –
CC(=O)C=CC1=C(C)CCCC1(C)C | – | – | – | -1.27 | – | – | –
FC(F)(F)C(F)(F)C(F)(F)C(F)(F)C(F)(F)C(F)(F)C(F)(F)Cl | – | 108 | – | – | – | – | –
C[C@]12CC[C@H]3[C@@H](CCC4=CC(=O)CC[C@@H]43)[C@@H]1CC[C@@H]2OC(=O)CCc1ccccc1 | 95.5 | – | – | – | – | – | –
CCNc1cccc2ccccc12 | – | 305 | not readily biodegradable | – | – | – | –
c1cncc(-c2cccnc2)c1 | 68 | 292 | – | – | – | – | –
O=CCCc1ccccc1 | – | 224 | – | – | – | – | –
COC(=O)CC(=O)OC | -61.9 | 181 | – | -0.0458 | – | – | –
COc1ccc(NC(=O)N(C)C)cc1 | – | – | – | – | 1.4 | – | –
CC[N+]1(CC)CCC(OC(=O)C(O)(c2ccccc2)c2ccccc2)C1.[Br-] (configuration not stated) | 204 | – | – | – | – | – | –
Cc1c(Cl)cc(Cl)c(Cl)c1Cl | 94 | 276 | – | – | – | – | –
Nc1ccc(Br)cc1 | 66.4 | – | – | – | 1.96 | – | –
OC1c2ccccc2CCc2ccccc21 | 92 | – | – | – | – | – | –
Oc1ccccc1I | 43 | – | not readily biodegradable | – | – | – | –
Cc1nnc2n1-c1sc(Br)cc1C(c1ccccc1Cl)=NC2 | 213 | – | – | – | – | – | –
CC(C)NNC(=O)COc1ccc(Cl)cc1 | 93.5 | – | – | – | – | – | –
O=NN(CCO)CCO | – | – | readily biodegradable | – | – | – | –
FC(F)OC(F)C(F)(F)F (configuration not stated) | – | 23.5 | – | 2.82 | – | – | –
CCC(C)(O)CCCC(C)C (configuration not stated) | 31.5 | 196 | – | – | – | – | –

Structure (SMILES) | melting point [°C] | boiling point [°C] | ready biodegradability | log10 vapour pressure (mmHg) | log10 Koc (L/kg) | log10 Henry constant (atm·m³/mol) | log10 biodegradation half-life (days)
CCN(CC)c1ccc(C=NN(c2ccccc2)c2ccccc2)cc1 | 94.5 | – | – | – | – | – | –
c1ccc(N(CC2CO2)CC2CO2)cc1 (configuration not stated) | – | – | not readily biodegradable | – | – | – | –
CC1(C)C=Cc2c(ccc3c2OC2c4ccc(O)cc4OCC32)O1 (configuration not stated) | 178 | – | – | – | – | – | –
O[C@@H]1CCCC[C@H]1O | 102 | – | – | – | – | – | –
NN1C(=O)CSC1=S | 102 | – | – | – | – | – | –
C[Si](C)(C)O[Si](C)(C)O[Si](C)(C)O[Si](C)(C)O[Si](C)(C)O[Si](C)(C)O[Si](C)(C)O[Si](C)(C)O[Si](C)(C)C | – | 308 | – | – | – | – | –
C1OCOCO1 | 60.2 | 114 | – | 1.24 | – | – | –
CCCC(=O)OCCC(C)C | -73.2 | 179 | – | -0.0223 | – | – | –
CCSc1cccc(C)c1 | – | 219 | – | – | – | – | –
NS(=O)(=O)c1ccc(S(=O)(=O)CCCCO)cc1 | 134 | – | – | – | – | – | –
CC1(C)[C@@H](OC(=O)CCC(=O)O)CC[C@]2(C)[C@H]3C(=O)C=C4[C@@H]5C[C@@](C)(C(=O)O)CC[C@]5(C)CC[C@@]4(C)[C@]3(C)CC[C@@H]12 | 292 | – | – | – | – | – | –
O=P(O)(c1ccccc1)c1ccccc1 | 194 | – | – | – | – | – | –
c1cc2c(c(NC3=NCCN3)c1)CCCC2 | 142 | – | – | – | – | – | –
CC[C@]1(O)C[C@H]2C[N@](CCc3c([nH]c4ccccc34)[C@@](C(=O)OC)(c3cc4c(cc3OC)N(C)[C@H]3[C@@](O)(C(N)=O)[C@H](O)[C@]5(CC)C=CCN6CC[C@]43[C@@H]65)C2)C1 | 231 | – | – | – | – | – | –
CCCCC(CCCC)c1ccncc1 | – | – | readily biodegradable | – | – | – | –
IC(I)(I)I | 171 | – | – | – | – | – | –
CCOc1ccc2ccccc2c1 | 37.5 | 282 | – | – | – | – | –
CCc1ccc(O)cc1 | 45 | 218 | readily biodegradable | -1.43 | – | -6.11 | –
C=C[Si](C)(C)C | – | 55 | – | – | – | – | –
CCCCCCOC(=O)CCCCC(=O)OCCCCCC | – | – | – | -5.54 | – | – | –
CCSc1ccc(C)cc1 | – | 220 | – | – | – | – | –
CCCC(=O)Nc1ccc(O)cc1 | 140 | – | – | – | – | – | –
COS(=O)(=O)[O-].C[n+]1c2ccccc2nc2ccccc21 | 157 | – | – | – | – | – | –
Cc1cccc2sc3nncn3c12 | 187 | 275 | – | -6.7 | 3.09 | – | –

Structure (SMILES) | melting point [°C] | boiling point [°C] | ready biodegradability | log10 vapour pressure (mmHg) | log10 Koc (L/kg) | log10 Henry constant (atm·m³/mol) | log10 biodegradation half-life (days)
CCCCCCCCOC(=O)CCCCC(=O)OCCCCCCCC | -70 | – | – | -6.07 | – | -6.36 | –
OCc1ccncc1 | 53 | – | – | – | – | – | –
c1ccc2sc(SN(C3CCCCC3)C3CCCCC3)nc2c1 | 99.8 | – | not readily biodegradable | – | – | – | –
CCCCCCCC1CCCCC1 | -30 | 244 | – | -1.4 | – | – | –
CN(C)Cc1cc(C(C)(C)C)c(O)c(C(C)(C)C)c1 | 93.5 | – | – | – | – | – | –
O=C(c1ccccc1)c1ccc(Cl)c([N+](=O)[O-])c1 | 105 | – | – | – | – | – | –
CCOP(=S)(OCC)SCSC(C)(C)C | -29.2 | – | – | -3.49 | 2.82 | – | –
CCCCC(CC)C(=O)O (configuration not stated) | – | 228 | – | -1.52 | – | – | –
CCCCCCCCC=CCCCCCCCCCCCCO | 35 | – | – | – | – | – | –
O=C(C(Cl)Cl)C(Cl)Cl | – | 183 | – | – | – | – | –
CC(Cl)(Cl)[N+](=O)[O-] | – | 124 | – | 1.23 | – | – | –
CC12CCC(CC1=NO)C2(C)C (configuration not stated) | 118 | – | – | – | – | – | –
O=C1C[C@@H](c2ccc(O)cc2)Oc2cc(O)cc(O)c21 | 251 | – | – | – | – | – | –
CCCC(CC)CC | – | 119 | – | 1.3 | – | – | 0.602
CCc1oc2ccccc2c1C(=O)c1cc(I)c(O)c(I)c1 | 167 | – | – | – | – | – | –
O=c1oc2ccccc2c(O)c1C1CC(c2ccc(OCc3ccc(C(F)(F)F)cc3)cc2)Cc2ccccc21 (configuration not stated) | 167 | – | – | – | – | – | –
c1ccc(-c2cc(-c3ccccc3)cc(-c3ccccc3)c2)cc1 | 176 | 462 | – | – | – | – | –
c1ccc2c3c([nH]c2c1)CCCC3 | 120 | 328 | – | – | – | – | –
CCSC(=O)COc1ccc(Cl)cc1C | 41.5 | – | – | -3.8 | – | – | –
COCC(C)C | – | 58.6 | – | 2.32 | – | – | –
COc1ccc(C(Cl)=C(c2ccc(OC)cc2)c2ccc(OC)cc2)cc1 | 115 | – | – | – | – | – | –
Fc1cc(F)c(F)c(F)c1 | -48 | 84.4 | – | 1.86 | – | – | –

Same assay, conditions: fish

Structure (SMILES) | log10 BCF | log10 biotransformation half-life (days)
CC(O)COCC(C)O (configuration not stated) | 0.66 | –
CC(C)OP(=O)(OC(C)C)SCc1ccccc1 | 0.94 | -1.2
CCNc1cccc2ccccc12 | 2.32 | 0.43
CCCCCCCC1CCCCC1 | – | 0.17
O=S(=O)(O)c1ccc(O)c2ccccc12 | 1.11 | –
